Measured values taken from US20260200942A1, “PARP7 INHIBITORS AND THEIR APPLICATIONS” (CHONGQING PHARSCIN INNOBIO CO., LTD., priority 2023, published 2026).

Tests used:
PARP7 = biological target: T1, PARP7 (Homo sapiens, UniProt Q7Z3E1); experiment: PARP7 inhibitory activity assay (histone-coated 384-well plate, chemiluminescence); format: biochemical
T1 construct: purchased BPS 80527
T1 sequence (Q7Z3E1 1-657): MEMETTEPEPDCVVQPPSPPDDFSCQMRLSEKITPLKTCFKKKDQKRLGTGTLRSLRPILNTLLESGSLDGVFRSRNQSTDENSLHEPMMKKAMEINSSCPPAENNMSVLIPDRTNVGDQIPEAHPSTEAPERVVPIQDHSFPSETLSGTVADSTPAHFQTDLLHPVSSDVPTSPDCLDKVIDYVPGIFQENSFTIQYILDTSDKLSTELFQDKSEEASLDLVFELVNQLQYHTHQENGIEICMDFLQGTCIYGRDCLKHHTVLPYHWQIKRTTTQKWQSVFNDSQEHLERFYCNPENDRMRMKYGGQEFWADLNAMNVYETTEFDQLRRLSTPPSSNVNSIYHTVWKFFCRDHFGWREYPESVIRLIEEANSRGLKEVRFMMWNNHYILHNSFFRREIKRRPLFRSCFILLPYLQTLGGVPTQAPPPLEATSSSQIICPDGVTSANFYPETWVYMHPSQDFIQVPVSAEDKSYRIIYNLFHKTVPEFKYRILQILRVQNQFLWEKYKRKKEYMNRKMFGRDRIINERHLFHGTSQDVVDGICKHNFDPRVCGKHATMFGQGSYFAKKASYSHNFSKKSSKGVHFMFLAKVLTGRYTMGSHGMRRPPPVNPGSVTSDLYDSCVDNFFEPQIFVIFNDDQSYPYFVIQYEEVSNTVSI
From the text: Inhibition rate (%) calculation formula: […]

[1] = Liver microsomal stability study, mouse; format: in vitro ADME; conditions: Mouse liver microsomes
Description: (§1) The above compounds were diluted to a 1.5 μM intermediate working solution with 0.1 M potassium phosphate buffer containing 0.75 mg/mL liver microsomes, and then 30 μL of the intermediate working solution was dispensed into reaction plates for different time points (0, 5, 15, 30, 45, 60 min). 150 μL of methanol solution containing internal standard was added to the 0 min plate wells. For the other time points (5, 15, 30, 45, 60 min), the sample plates were pre-incubated at 37° C. for 5 min, after which the reaction was initiated with 15 μL of 6 mM NADPH solution and timing was started. 15 μL of 6 mM NADPH solution was added to the 0 min samples to balance the system. At 5 min, 15 min, 30 min, 45 min, and 60 min, respectively, 150 μL of methanol solution containing internal standard was added to the reaction wells to terminate the reaction. After the reaction was complete, the plates were shaken on a shaker at 600 rpm for 10 min, then centrifuged at 4000 rpm for 15 min. 80 μL of supernatant from each well was transferred to a 96-well sample plate containing 150 μL of ultrapure water, mixed, and then analyzed by LC/MS to calculate T1/2.

[2] = Liver microsomal stability study, human; format: in vitro ADME; conditions: Human liver microsomes
Description: as §1

[3] = Liver microsomal stability study, rat; format: in vitro ADME; conditions: Rat liver microsomes
Description: as §1

[4] = Mouse pharmacokinetic study; format: in vivo; conditions: BALB/c mice; for AUC(0-t) / Cmax / Tmax / half-life: female, mouse, plasma
From the text: • (1) Study design: Female healthy Balb/c mice (specific pathogen-free (SPF) grade) were used as test animals, divided into 2 dose groups with 3 mice in each group, for single intravenous injection and single oral gavage administration, respectively. The vehicle formulations were […] (DMSO)+10% Solutol+85% Saline and 0.5% methylcellulose (MC), respectively. • (2) Plasma sample collection and processing: Blood was collected from the orbital venous plexus of the mice. After intravenous (IV) bolus administration, samples were collected at 0.083 h, 0.25 h, 0.5 h, 1 h, 2 h, 4 h, 8 h, and 24 h. After oral (PO) administration, samples were collected at 0.25 h, 0.5 h, 1 h, 2 h, 4 h, 6 h, 8 h, and 24 h. An appropriate volume of whole blood samples was collected with EDTA-K2 anticoagulation, placed on wet ice after collection, and plasma was separated by centrifugation within 30 min (centrifugation conditions: 4000 rpm, 10 minutes, 2-8° C.). The collected plasma samples were stored in a −70° C. freezer before analysis. After analysis, the remaining plasma samples continued to be stored in a −70° C. freezer. • (3) Analytical batch processing and pharmacokinetic parameter calculation: The concentration of the test substance in the plasma samples was determined. The accuracy of quality control samples was evaluated concurrently with the analysis of the samples, with the requirement that more than 66.7% of the quality control samples have an accuracy between 80-120%. Using the plasma concentration data at different time points, pharmacokinetic parameters such as C0 (IV), Area Under the Curve (AUC)(0-t), T1/2, Cmax, Tmax, and Mean Residence Time (MRT) were calculated using WinNonlin.

PARP2 = biological target: T2, PARP2 (Homo sapiens, UniProt Q9UGN5); experiment: PARP2 inhibitory activity assay (BPS PARP2 Chemiluminescent Activity Assay Kit); format: biochemical
T2 construct: purchased BPS Bioscience
T2 sequence (Q9UGN5 whole entry): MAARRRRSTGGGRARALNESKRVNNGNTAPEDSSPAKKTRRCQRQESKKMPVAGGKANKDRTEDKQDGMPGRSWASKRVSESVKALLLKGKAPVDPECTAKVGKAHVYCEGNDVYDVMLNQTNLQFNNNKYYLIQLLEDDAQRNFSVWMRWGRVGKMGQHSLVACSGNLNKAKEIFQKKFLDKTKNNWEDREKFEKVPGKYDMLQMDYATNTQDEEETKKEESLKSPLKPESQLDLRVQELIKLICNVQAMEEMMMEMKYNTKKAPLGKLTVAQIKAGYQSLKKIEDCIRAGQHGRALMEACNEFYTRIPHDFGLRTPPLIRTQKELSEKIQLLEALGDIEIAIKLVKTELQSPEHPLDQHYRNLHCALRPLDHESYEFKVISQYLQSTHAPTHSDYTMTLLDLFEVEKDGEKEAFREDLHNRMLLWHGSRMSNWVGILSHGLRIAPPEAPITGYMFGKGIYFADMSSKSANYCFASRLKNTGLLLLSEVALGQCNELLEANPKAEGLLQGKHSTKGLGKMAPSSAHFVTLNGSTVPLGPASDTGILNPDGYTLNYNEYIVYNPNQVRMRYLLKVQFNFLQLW
From the text: The PARP2 enzyme activity assay method used in the present disclosure employs reagents from the PARP2 Chemiluminescent Activity Assay Kit from BPS Bioscience, USA. […] The test results are shown in Table 1. /” indicates not tested.

IC50 (PARP7)	half-life at 1 µM [1]	half-life at 1 µM [2]	half-life at 1 µM [3]	F ([4]; PO, 10 mg/kg, 0.5% MC)	AUC(0-t) ([4]; IV, 1 mg/kg)	Cmax ([4]; IV, 1 mg/kg)	Tmax ([4]; IV, 1 mg/kg)	half-life ([4]; IV, 1 mg/kg)	AUC(0-t) ([4]; PO, 10 mg/kg, 0.5% MC)	Cmax ([4]; PO, 10 mg/kg, 0.5% MC)	Tmax ([4]; PO, 10 mg/kg, 0.5% MC)	half-life ([4]; PO, 10 mg/kg, 0.5% MC)	IC50 (PARP2)	Compound
10 to 100 nM	> 60 min	> 60 min	> 60 min	66.00%	7900 ng·h/mL	4210 ng/mL	4.8 min	76.8 min	52100 ng·h/mL	22000 ng/mL	19.8 min	58.8 min		O=C(C1CN(Cc2cc(C(F)(F)F)c(=O)[nH]n2)C1)N1CCN(c2ncc(C(F)(F)F)cn2)CC1 [Embodiment 5, 4-(trifluoromethyl)-6-((3-(4-(5-(trifluoromethyl)pyrimidin-2-yl)piperazine-1-carbonyl)azetidin-1-yl)methyl)pyridazin-3(2H)-one]
< 10 nM	> 60 min	> 60 min	> 60 min										100 to 1000 nM	CC(=O)Nc1cc(C(F)(F)F)cnc1N1CCN(C(=O)[C@H]2C[C@H](NCc3cc(C(F)(F)F)c(=O)[nH]n3)C2)CC1 [Embodiment 63, N-(2-(4-((1R,3R)-3-(((6-oxo-5-(trifluoromethyl)-1,6-dihydropyridazin-3-yl)methyl)amino)cyclobutane-1-carbonyl)piperazin-1-yl)-5-(trifluoromethyl)pyridin-3-yl)acetamide]
< 10 nM	> 60 min	> 60 min	> 60 min										100 to 1000 nM	CC(=O)Nc1cc(C(F)(F)F)cnc1N1CCN(C(=O)[C@H]2C[C@H](NC(C)(C)c3cc(C(F)(F)F)c(=O)[nH]n3)C2)CC1 [Embodiment 61, N-(2-(4-((1R,3R)-3-((2-(6-oxo-5-(trifluoromethyl)-1,6-dihydropyridazin-3-yl)propan-2-yl)amino)cyclobutane-1-carbonyl)piperazin-1-yl)-5-(trifluoromethyl)pyridin-3-yl)acetamide]
10 to 100 nM	> 60 min	> 60 min	> 60 min	59.45%	1790 ng·h/mL	1200 ng/mL	4.8 min	53.4 min	10700 ng·h/mL	7060 ng/mL	15 min	48.6 min		O=c1[nH]nc(CN[C@H]2C[C@H](C(=O)N3CCN(c4ncc(C(F)(F)F)cn4)CC3)C2)cc1C(F)(F)F [Embodiment 12]
